Laboratory results: patent US6794356B2, “Fabric softening composition comprising a malodor controlling agent” (The Procter & Gamble Company, priority 2000, dated 2004)

Details: typical approximate values; salt added to the solution

**Q.** With `O=S(=O)([O-])[O-].[Ca+2]` [calcium sulfate] as the compound, how does the “cloud point of 1% solution of Neodol 91-8” value read?
**A.** The value was “no change”.

**Q.** For `[Cl-].[Na+]` [sodium chloride], which “cloud point of 1% solution of Neodol 91-8” value is on record?
**A.** The value was 63-66.9 °C.
